biological target: T1, human glucagon receptor (Homo sapiens, UniProt P47871); assay: Glucagon binding inhibitory activity ([125I]-glucagon binding to glucagon receptor membrane protein); settings: human glucagon receptor membrane protein, [125I]-glucagon, 90 min room temperature
T1 construct: made in house; host or cells: FreeStyle CHO cells, transient transfection with pMSRαneo/hGCGR; membrane fraction (35,000 rpm pellet)
Method in brief: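 Receptor source was a membrane fraction of transiently transfected CHO cells bearing human receptor; 90 min room-temperature binding, filtration harvest, scintillation counting.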

T1 sequence (P47871 26-477): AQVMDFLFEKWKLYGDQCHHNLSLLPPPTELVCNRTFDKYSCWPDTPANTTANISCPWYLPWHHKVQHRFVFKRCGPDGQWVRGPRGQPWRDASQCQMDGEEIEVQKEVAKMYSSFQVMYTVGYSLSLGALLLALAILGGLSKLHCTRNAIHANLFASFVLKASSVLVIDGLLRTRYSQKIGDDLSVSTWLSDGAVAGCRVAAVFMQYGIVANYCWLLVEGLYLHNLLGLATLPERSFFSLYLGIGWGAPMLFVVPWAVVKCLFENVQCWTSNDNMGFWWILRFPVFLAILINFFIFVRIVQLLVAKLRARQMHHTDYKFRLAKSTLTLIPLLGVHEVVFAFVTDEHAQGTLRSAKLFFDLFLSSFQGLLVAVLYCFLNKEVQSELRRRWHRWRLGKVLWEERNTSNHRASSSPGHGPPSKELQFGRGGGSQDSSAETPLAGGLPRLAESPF

Compound	IC50
Cc1c(C(Nc2ccc(C(=O)NCCC(=O)O)cc2)C2CCCCC2)oc2ccccc12 (centres unmarked) [Example A17, 3-{[(4-{[cyclohexyl(3-methyl-1-benzofuran-2-yl)methyl]amino}phenyl)carbonyl]amino}propanoic acid]	230 nM

same assay, conditions: test compound 10 μM; 0.4% DMSO = 0%, non-labeled glucagon 1 μM = 100%; read-out: inhibitory rate (%) at 10 μM

Compound	inhibition at 10 µM
COCCN(C)c1ccc2oc(C(Nc3ccc(C(=O)N(C)CCC(=O)O)cc3)C3CCCCC3)c(C)c2c1 (centres unmarked) [Example A188, 3-[({4-[(cyclohexyl{5-[(2-methoxyethyl)(methyl)amino]-3-methyl-1-benzofuran-2-yl}methyl)amino]phenyl}carbonyl)(methyl)amino]propanoic acid]	77%
CN(CCC(=O)O)C(=O)c1ccc(NC(c2cn(-c3ccc(C(F)(F)F)cn3)nc2CCc2ccccc2)C2CCCCC2)cc1 (centres unmarked) [Example 12, 3-[({4-[(cyclohexyl{3-(2-phenylethyl)-1-[5-(trifluoromethyl)pyridin-2-yl]-1H-pyrazol-4-yl}methyl)amino]phenyl}carbonyl)(methyl)amino]propanoic acid]	74%
CCn1nc(-c2ccc(OC(F)(F)F)cc2)cc1C(Nc1ccc(C(=O)N(C)CCC(=O)O)cc1)C1CCCCC1 (centres unmarked) [Example 58, 3-[({4-[(cyclohexyl{1-ethyl-3-[4-(trifluoromethoxy)phenyl]-1H-pyrazol-5-yl}methyl)amino]phenyl}carbonyl)(methyl)amino]propanoic acid]	69%
CN(CCC(=O)O)C(=O)c1ccc(NC(c2cc3ccccc3o2)C2CCCCC2)cc1 (centres unmarked) [Example A4, 3-{[(4-{[1-benzofuran-2-yl(cyclohexyl)methyl]amino}phenyl)carbonyl](methyl)amino}-propanoic acid]	66%
Cc1c(C(Nc2ccc(C(=O)NCCC(=O)O)cc2)C2CCCCC2)oc2ccccc12 (centres unmarked) [Example A17, 3-{[(4-{[cyclohexyl(3-methyl-1-benzofuran-2-yl)methyl]amino}phenyl)carbonyl]amino}propanoic acid]	72%
CCc1nn(-c2ccc(OC)cc2)cc1C(Nc1ccc(C(=O)N(C)CCC(=O)O)cc1)C1CCCCC1 (centres unmarked) [Example 51, 3-[{[4-({cyclohexyl[3-ethyl-1-(4-methoxyphenyl)-1H-pyrazol-4-yl]methyl}amino)phenyl]carbonyl}(methyl)amino]propanoic acid]	60%
Cc1c(C(Nc2ccc(C(=O)N(C)CCC(=O)O)cn2)C2CCCCC2)oc2c(F)cc(F)cc12 (centres unmarked) [Example A185, 3-{[(6-{[cyclohexyl(5,7-difluoro-3-methyl-1-benzofuran-2-yl)methyl]amino}pyridin-3-yl)carbonyl](methyl)amino}propanoic acid]	71%
Cc1c(C(Nc2ccc(C(=O)N(C)CCC(=O)O)cc2)C2CCCCC2)oc2ccc(OCc3ccccn3)cc12 (centres unmarked) [Example A155, 3-[{[4-({cyclohexyl[3-methyl-5-(pyridin-2-ylmethoxy)-1-benzofuran-2-yl]methyl}amino)phenyl]carbonyl}(methyl)amino]propanoic acid]	81%
O=C(O)CCNC(=O)c1ccc(NC(c2cn(-c3ccc(C(F)(F)F)cn3)nc2C2CC2)C2CCCCC2)cc1 (centres unmarked) [Example 9, 3-[({4-[(cyclohexyl{3-cyclopropyl-1-[5-(trifluoromethyl)pyridin-2-yl]-1H-pyrazol-4-yl}methyl)amino]phenyl}carbonyl)amino]propanoic acid]	74%
Cc1c(C(Nc2ccc(C(=O)N(C)CCC(=O)O)cc2)C2CCCCC2)oc2cccc(F)c12 (centres unmarked) [Example A162]	79%
Cc1sc2ccccc2c1C(Nc1ccc(C(=O)N(C)CCC(=O)O)cc1)C1CCCCC1 (centres unmarked) [Example A9, 3-{[(4-{[cyclohexyl(2-methyl-1-benzothiophen-3-yl)methyl]amino}phenyl)carbonyl](methyl)amino}propanoic acid]	67%
CCn1nc(-c2ccc(OC(F)(F)F)cc2)cc1C(CC(C)C)Nc1ccc(C(=O)N(C)CCC(=O)O)cc1 (centres unmarked) [Example 59, 3-[({4-[(1-{1-ethyl-3-[4-(trifluoromethoxy)phenyl]-1H-pyrazol-5-yl}-3-methylbutyl)amino]phenyl}carbonyl)(methyl)amino]propanoic acid]	61%
Cc1ccc2oc(C(Nc3ccc(C(=O)N(C)CCC(=O)O)cc3)C3CCCCC3)c(C)c2c1 (centres unmarked) [Example A91, 3-{[(4-{[cyclohexyl(3,5-dimethyl-1-benzofuran-2-yl)methyl]amino}phenyl)carbonyl](methyl)amino}propanoic acid]	79%
Cc1c(C(CC(C)C)Nc2ccc(C(=O)N(C)CCC(=O)O)cc2)sc2ccccc12 (centres unmarked) [Example A32, 3-{methyl[(4-{[3-methyl-1-(3-methyl-1-benzothiophen-2-yl)butyl]amino}phenyl)carbonyl]amino}propanoic acid]	72%
Cc1c(C(Nc2ccc(C(=O)NCCC(=O)O)cc2)C2CCCCC2)oc2ccc(OCc3ccccc3)cc12 (centres unmarked) [Example A158, 3-({[4-({[5-(benzyloxy)-3-methyl-1-benzofuran-2-yl](cyclohexyl)methyl}amino)phenyl]carbonyl}amino)propanoic acid]	79%
COCCOc1ccc2oc(C(Nc3ccc(C(=O)N(C)CCC(=O)O)cc3)C3CCCCC3)c(C)c2c1 (centres unmarked) [Example A79, 3-[{[4-({cyclohexyl[5-(2-methoxyethoxy)-3-methyl-1-benzofuran-2-yl]methyl}amino)phenyl]carbonyl}(methyl)amino]propanoic acid]	73%

Compound	inhibition at 10 µM
Cc1c(C(Nc2ccc(C(=O)N(C)CCC(=O)O)cc2)C2CCCC2)sc2ccccc12 (centres unmarked) [Example A64, 3-{[(4-{[cyclopentyl(3-methyl-1-benzothiophen-2-yl)methyl]amino}phenyl)carbonyl](methyl)amino}propanoic acid]	84%
Cc1c(C(Nc2ccc(C(=O)N(C)CCC(=O)O)nc2)C(C)C)oc2ccc(OCC3CC3)cc12 (centres unmarked) [Example A213, 3-[{[5-({1-[5-(cyclopropylmethoxy)-3-methyl-1-benzofuran-2-yl]-2-methylpropyl}amino)pyridin-2-yl]carbonyl}(methyl)amino]propanoic acid]	70%
Cc1ccc2oc(C(Nc3ccc(C(=O)NCCC(=O)O)cc3)C3CCCCC3)c(C)c2c1 (centres unmarked) [Example A90, 3-{[(4-{[cyclohexyl(3,5-dimethyl-1-benzofuran-2-yl)methyl]amino}phenyl)carbonyl]amino}propanoic acid]	77%
Cc1c(C(CC(C)C)Nc2ccc(C(=O)NCCC(=O)O)cc2)oc2ccc(Cl)cc12 (centres unmarked) [Example A100, 3-{[(4-{[1-(5-chloro-3-methyl-1-benzofuran-2-yl)-3-methylbutyl]amino}phenyl)carbonyl]amino}propanoic acid]	78%
COc1c(C(Nc2ccc(C(=O)N(C)CCC(=O)O)cc2)C2CCCCC2)oc2ccc(F)cc12 (centres unmarked) [Example A214, 3-{[(4-{[cyclohexyl(5-fluoro-3-methoxy-1-benzofuran-2-yl)methyl]amino}phenyl)carbonyl](methyl)amino}propanoic acid]	75%
CCOc1cccc(-n2cc(C(CC(C)C)Nc3ccc(C(=O)NCCC(=O)O)cc3)c(CC)n2)c1 (centres unmarked) [Example 86, 3-({[4-({1-[1-(3-ethoxyphenyl)-3-ethyl-1H-pyrazol-4-yl]-3-methylbutyl}amino)phenyl]carbonyl}amino)propanoic acid]	76%
Cc1c(C(Nc2ccc(C(=O)N(C)CCC(=O)O)cc2)C2CCCCC2)oc2ccc(-c3cnn(C)c3)cc12 (centres unmarked) [Example A181, 3-[{[4-({cyclohexyl[3-methyl-5-(1-methyl-1H-pyrazol-4-yl)-1-benzofuran-2-yl]methyl}amino)phenyl]carbonyl}(methyl)amino]propanoic acid]	88%
Cc1c(C(Nc2ccc(C(=O)N(C)CCC(=O)O)cc2)C2CCCCC2)sc2ccccc12 (centres unmarked) [Example A13, 3-{[(4-{[cyclohexyl(3-methyl-1-benzothiophen-2-yl)methyl]amino}phenyl)carbonyl](methyl)amino}propanoic acid]	85%
COCc1nn(-c2ccc(OC)cc2)cc1C(Nc1ccc(C(=O)NCCC(=O)O)cc1)C1CCCCC1 (centres unmarked) [Example 35, 3-({[4-({cyclohexyl[3-(methoxymethyl)-1-(4-methoxyphenyl)-1H-pyrazol-4-yl]methyl}amino)phenyl]carbonyl}amino)propanoic acid]	75%
COCCCCC(Nc1ccc(C(=O)NCCC(=O)O)cc1)c1oc2ccc(OC)cc2c1C (centres unmarked) [Example A123, 3-{[(4-{[5-methoxy-1-(5-methoxy-3-methyl-1-benzofuran-2-yl)pentyl]amino}phenyl)carbonyl]amino}propanoic acid]	71%
COCc1nn(-c2ccc(OC(F)(F)F)cc2)cc1C(Nc1ccc(C(=O)NCCC(=O)O)cc1)C1CCCCC1 (centres unmarked) [Example 33, 3-[({4-[(cyclohexyl{3-(methoxymethyl)-1-[4-(trifluoromethoxy)phenyl]-1H-pyrazol-4-yl}methyl)amino]phenyl}carbonyl)amino]propanoic acid]	75%
CCCc1nn(-c2ccc(C(F)(F)F)cn2)cc1C(Nc1ccc(C(=O)N(C)CCC(=O)O)cc1)C1CCCCC1 (centres unmarked) [Example 6, 3-[({4-[(cyclohexyl{3-propyl-1-[5-(trifluoromethyl)pyridin-2-yl]-1H-pyrazol-4-yl}methyl)amino]phenyl}carbonyl)(methyl)amino]propanoic acid]	75%
CCOc1cccc(-n2cc(C(Nc3ccc(C(=O)NCC(C)C(=O)O)cc3)C3CCCCC3)c(CC)n2)c1 (centres unmarked) [Example 92, 3-({[4-({cyclohexyl[1-(3-ethoxyphenyl)-3-ethyl-1H-pyrazol-4-yl]methyl}amino)phenyl]carbonyl}amino)-2-methylpropanoic acid]	56%
Cc1c(C(Nc2ccc(C(=O)N(C)CCC(=O)O)nc2)C(C)C)oc2ccc(OCc3ccccc3)cc12 (centres unmarked) [Example A172, 3-[{[5-({1-[5-(benzyloxy)-3-methyl-1-benzofuran-2-yl]-2-methylpropyl}amino)pyridin-2-yl]carbonyl}(methyl)amino]propanoic acid]	82%
COCc1nn(-c2ccccc2)cc1C(Nc1ccc(C(=O)N(C)CCC(=O)O)cc1)C1CCCCC1 (centres unmarked) [Example 38, 3-[{[4-({cyclohexyl[3-(methoxymethyl)-1-phenyl-1H-pyrazol-4-yl]methyl}amino)phenyl]carbonyl}(methyl)amino]propanoic acid]	53%
